System: liver
Assay: DMN-induced liver fibrosis, H & E and Masson's trichrome staining
Type: in vivo, mouse
Method: Please refer to FIG. 6, which is a view showing liver fibrosis of mice dyed through H & E and Masson methods. As shown in the figures, dimethylnitrosamine (DMN) is used to induce liver fibrosis. 12 mice are randomly divided into two groups each having 6 mice. One is an experimental group and the other is a control group. Mice in the experimental group are injected with 10 mg·kg of DMN for 3 continuous days in a week, and this process lasts for four weeks. Mice in the control group are injected with the same amount of normal saline diluted into a density of 10 mg/ml. During the time for inducing liver fibrosis, all mice are fed with food and water normally. Four days after injecting DMN the final time, dyeing methods of H & E and Masson's are used to examine sliced tissues of mouse bodies for confirming DMN's ability on inducing liver fibrosis of the mice.
For examining the tissues, the mice are sacrificed by blowing high-density CO2 for the mice to breathe in at first. Then, the livers are taken out to sink left lateral lobe in 4% pH 7.4 phosphate-buffered paraformaldehyde. After being paraffin-embedded for 24 hrs, 4 μm of each tissue is taken.
The tissues are examined for their morphological changes through methods of Hematoxylin and Eosin stains and then Masson's trichrome is used to examine statuses of liver fibrosis. […]

CN(C)N=O [DMN, dimethylnitrosamine]
average weight of mouse having fibrosis liver relative to normal mouse (DMN 3 continuous days a week for four weeks): 92%
Masson's trichrome staining of liver tissue (four days after final DMN injection): show blue color on fibrosis tissues

From patent US8961931B2, “18F-labeled monomeric galactose derivative used as tomography probe” (Institute of Nuclear Energy Research, Atomic Energy Council, priority 2011, dated 2015)
